Measured values taken from ChEMBL document CHEMBL5113400, “Design, synthesis, and biological evaluation of trizole-based heteroaromatic derivatives as Bcr-Abl kinase inhibitors” (Eur J Med Chem, 2022).

Experiments:
[1] = tested on: K562; assay: Induction of apoptosis in human K562 cells assessed as late apoptotic cells at 1 uM incubated for 48 hrs by Annexin V-FITC/PI staining based flow cytometry analysis (Rvb= 14.66%); format: functional
[2] = target: Vascular endothelial growth factor receptor 2 (Homo sapiens) (UniProt P35968); assay: Inhibition of recombinant human KDR at 10 uM for 10 mins followed by substrate addition in presence of ATP and measured after 60 mins by HTRF assay; conditions: time 70.0 min
Vascular endothelial growth factor receptor 2 (Homo sapiens), sequence (P35968 whole entry): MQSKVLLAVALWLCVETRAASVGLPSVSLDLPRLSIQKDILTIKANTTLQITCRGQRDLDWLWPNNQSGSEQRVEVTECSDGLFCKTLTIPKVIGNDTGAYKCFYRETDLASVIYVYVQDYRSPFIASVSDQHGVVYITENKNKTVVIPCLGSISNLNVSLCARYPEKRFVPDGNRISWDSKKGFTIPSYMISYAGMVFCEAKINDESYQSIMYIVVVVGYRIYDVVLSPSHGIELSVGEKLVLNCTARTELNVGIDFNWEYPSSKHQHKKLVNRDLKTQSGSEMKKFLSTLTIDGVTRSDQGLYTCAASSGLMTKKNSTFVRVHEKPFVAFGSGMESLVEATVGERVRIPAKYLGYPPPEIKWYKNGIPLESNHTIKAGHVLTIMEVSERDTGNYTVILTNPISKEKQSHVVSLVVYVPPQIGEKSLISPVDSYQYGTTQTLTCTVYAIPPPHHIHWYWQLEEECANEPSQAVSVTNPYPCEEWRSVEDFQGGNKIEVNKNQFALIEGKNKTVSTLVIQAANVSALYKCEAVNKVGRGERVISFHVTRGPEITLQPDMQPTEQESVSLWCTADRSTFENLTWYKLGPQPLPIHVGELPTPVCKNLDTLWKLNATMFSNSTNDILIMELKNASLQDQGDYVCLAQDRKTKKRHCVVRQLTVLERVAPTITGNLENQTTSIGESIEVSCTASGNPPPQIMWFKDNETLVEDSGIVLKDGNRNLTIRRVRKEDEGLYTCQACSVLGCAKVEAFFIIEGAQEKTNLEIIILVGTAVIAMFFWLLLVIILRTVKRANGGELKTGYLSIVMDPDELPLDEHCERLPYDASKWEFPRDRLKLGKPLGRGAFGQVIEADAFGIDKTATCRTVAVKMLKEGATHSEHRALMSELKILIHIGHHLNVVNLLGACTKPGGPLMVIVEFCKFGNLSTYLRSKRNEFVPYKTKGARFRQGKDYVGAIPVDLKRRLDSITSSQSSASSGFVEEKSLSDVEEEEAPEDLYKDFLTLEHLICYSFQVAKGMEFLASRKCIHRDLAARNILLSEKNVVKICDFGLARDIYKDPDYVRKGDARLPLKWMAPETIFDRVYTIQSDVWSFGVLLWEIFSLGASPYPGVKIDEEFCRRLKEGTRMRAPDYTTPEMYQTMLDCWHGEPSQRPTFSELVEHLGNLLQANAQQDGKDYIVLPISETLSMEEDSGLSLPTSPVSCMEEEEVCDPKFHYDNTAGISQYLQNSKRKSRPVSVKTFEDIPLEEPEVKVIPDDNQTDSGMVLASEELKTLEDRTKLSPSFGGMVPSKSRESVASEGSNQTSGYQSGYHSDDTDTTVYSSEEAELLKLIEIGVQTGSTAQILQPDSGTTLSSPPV

[3] = tested on: K562; assay: Induction of apoptosis in human K562 cells assessed as late apoptotic cells at 5 uM incubated for 48 hrs by Annexin V-FITC/PI staining based flow cytometry analysis (Rvb= 14.66%); format: functional
[4] = tested on: K-562R; assay: Antiproliferative activity against human K-562R cells expressing Bcr-Abl T315I mutant assessed as inhibition of cell growth incubated for 48 hrs by MTT assay; format: functional, cell-based
[5] = target: Bcr/Abl fusion protein (Homo sapiens, UniProt P00519, T315I); assay: Inhibition of Bcr-Abl T315I mutant (unknown origin) incubated for 1 hr in presence of ATP by ADP-Glo kinase assay; format: protein assay
[6] = tested on: K562; assay: Antiproliferative activity against human K562 cells assessed as inhibition of cell growth incubated for 48 hrs by MTT assay; format: functional, cell-based; conditions: K562, 48 h
[7] = tested on: K562; assay: Induction of apoptosis in human K562 cells assessed as viable cells at 1 uM incubated for 48 hrs by Annexin V-FITC/PI staining based flow cytometry analysis (Rvb=80.89%); format: functional; conditions: read-out: Activity
[8] = tested on: K562; assay: Induction of cell cycle arrest in human K562 cells assessed as accumulation at G2/M phase at 1 to 10 uM incubated for 48 hrs by PI staining based flow cytometry (Rvb= 12.23%); format: functional; conditions: dose 1-10 µM
[9] = target: Dual specificity tyrosine-phosphorylation-regulated kinase 1B (Homo sapiens) (UniProt Q9Y463); assay: Inhibition of recombinant human DYRK1B at 10 uM for 10 mins followed by substrate addition in presence of ATP and measured after 60 mins by HTRF assay; conditions: time 70.0 min
Dual specificity tyrosine-phosphorylation-regulated kinase 1B (Homo sapiens), sequence (Q9Y463 whole entry, looked up): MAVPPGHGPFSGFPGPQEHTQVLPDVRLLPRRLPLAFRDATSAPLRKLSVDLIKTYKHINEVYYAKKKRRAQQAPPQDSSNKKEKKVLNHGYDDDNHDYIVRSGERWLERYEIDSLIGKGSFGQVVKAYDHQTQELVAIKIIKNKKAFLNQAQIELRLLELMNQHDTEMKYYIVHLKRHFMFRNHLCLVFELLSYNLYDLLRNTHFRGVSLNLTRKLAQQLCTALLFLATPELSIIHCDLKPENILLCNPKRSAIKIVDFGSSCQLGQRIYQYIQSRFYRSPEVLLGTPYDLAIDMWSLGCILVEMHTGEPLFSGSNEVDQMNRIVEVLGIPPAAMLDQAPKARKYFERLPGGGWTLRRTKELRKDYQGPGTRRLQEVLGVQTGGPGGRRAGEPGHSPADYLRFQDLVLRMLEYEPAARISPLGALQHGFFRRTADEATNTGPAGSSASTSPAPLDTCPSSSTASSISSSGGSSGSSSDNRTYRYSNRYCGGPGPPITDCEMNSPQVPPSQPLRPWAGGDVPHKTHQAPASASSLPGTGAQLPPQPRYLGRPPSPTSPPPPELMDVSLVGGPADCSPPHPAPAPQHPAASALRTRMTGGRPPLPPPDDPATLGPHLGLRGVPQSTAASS

[10] = tested on: HEK293; assay: Cytotoxicity against human HEK293 cells assessed as inhibition of cell growth upto 100 uM incubated for 48 hrs by MTT assay; format: toxicity, cell-based; conditions: hek293, 48 h
[11] = target: T1, Tyrosine-protein kinase ITK/TSK (Homo sapiens) (UniProt Q08881); assay: Inhibition of recombinant human ITK at 10 uM for 10 mins followed by substrate addition in presence of ATP and measured after 100 mins by ADP-Glo kinase assay; conditions: time 110.0 min
T1 sequence (whole entry): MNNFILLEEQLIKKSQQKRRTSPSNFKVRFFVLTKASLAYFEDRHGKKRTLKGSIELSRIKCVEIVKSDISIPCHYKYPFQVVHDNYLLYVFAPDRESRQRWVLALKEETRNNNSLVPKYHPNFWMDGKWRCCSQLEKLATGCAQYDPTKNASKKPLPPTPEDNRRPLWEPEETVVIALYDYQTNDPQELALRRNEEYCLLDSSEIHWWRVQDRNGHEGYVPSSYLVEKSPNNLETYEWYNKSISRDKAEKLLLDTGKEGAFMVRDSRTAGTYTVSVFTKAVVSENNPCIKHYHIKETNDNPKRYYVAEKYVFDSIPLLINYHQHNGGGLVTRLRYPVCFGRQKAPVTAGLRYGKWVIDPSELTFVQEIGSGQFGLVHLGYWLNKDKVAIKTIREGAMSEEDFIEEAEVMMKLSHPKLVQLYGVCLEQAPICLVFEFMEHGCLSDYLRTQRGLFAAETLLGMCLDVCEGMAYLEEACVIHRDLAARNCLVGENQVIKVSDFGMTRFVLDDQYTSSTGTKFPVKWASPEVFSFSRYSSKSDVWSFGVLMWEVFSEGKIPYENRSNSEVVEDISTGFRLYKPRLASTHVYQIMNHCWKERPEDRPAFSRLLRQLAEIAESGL

[12] = tested on: BaF3; assay: Antiproliferative activity against mouse BaF3 cells expressing Bcr-Abl T315I mutant assessed as inhibition of cell growth incubated for 72 hrs by CellTiter-Glo luminescent assay; format: functional, cell-based; conditions: BaF3, 72 h
[13] = tested on: K562; assay: Induction of apoptosis in human K562 cells assessed as early apoptotic cells at 1 uM incubated for 48 hrs by Annexin V-FITC/PI staining based flow cytometry analysis (Rvb= 4.35%); format: functional
[14] = target: BDNF/NT-3 growth factors receptor (Homo sapiens) (UniProt Q16620); assay: Inhibition of recombinant human TRKB at 10 uM for 10 mins followed by substrate addition in presence of ATP and measured after 100 mins by ADP-Glo kinase assay; conditions: time 110.0 min
BDNF/NT-3 growth factors receptor (Homo sapiens), sequence (Q16620 32-822 limits assumed): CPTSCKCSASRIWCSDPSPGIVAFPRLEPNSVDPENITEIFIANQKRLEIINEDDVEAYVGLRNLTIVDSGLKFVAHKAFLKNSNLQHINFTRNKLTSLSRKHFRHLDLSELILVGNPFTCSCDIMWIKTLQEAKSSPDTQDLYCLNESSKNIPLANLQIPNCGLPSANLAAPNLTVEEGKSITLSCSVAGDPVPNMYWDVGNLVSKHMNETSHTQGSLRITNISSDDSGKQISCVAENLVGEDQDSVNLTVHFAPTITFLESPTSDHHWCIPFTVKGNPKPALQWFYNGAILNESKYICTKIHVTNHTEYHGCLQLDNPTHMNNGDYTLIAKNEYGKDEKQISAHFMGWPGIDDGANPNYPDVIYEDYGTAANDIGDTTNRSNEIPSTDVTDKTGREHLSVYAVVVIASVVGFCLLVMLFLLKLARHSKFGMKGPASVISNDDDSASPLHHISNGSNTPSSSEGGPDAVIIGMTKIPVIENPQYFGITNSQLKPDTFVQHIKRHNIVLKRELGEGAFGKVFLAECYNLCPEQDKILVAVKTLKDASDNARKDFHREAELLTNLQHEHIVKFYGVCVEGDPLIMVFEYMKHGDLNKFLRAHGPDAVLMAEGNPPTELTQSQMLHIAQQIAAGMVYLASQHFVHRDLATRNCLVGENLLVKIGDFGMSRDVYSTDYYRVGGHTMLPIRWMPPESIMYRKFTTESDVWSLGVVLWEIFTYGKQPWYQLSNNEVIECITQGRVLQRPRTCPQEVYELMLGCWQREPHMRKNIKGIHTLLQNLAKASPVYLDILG

[15] = target: Vascular endothelial growth factor receptor 2 (Homo sapiens) (UniProt P35968); assay: Inhibition of recombinant human KDR at 10 uM for 10 mins followed by substrate addition in presence of ATP and measured after 100 mins by ADP-Glo kinase assay; conditions: time 110.0 min
[16] = target: Dual specificity tyrosine-phosphorylation-regulated kinase 1B (Homo sapiens) (UniProt Q9Y463); assay: Inhibition of recombinant human DYRK1B at 10 uM for 10 mins followed by substrate addition in presence of ATP and measured after 100 mins by ADP-Glo kinase assay; conditions: time 110.0 min
[17] = tested on: BaF3; assay: Antiproliferative activity against mouse BaF3 cells expressing Bcr-Abl T315I mutant assessed as inhibition of cell growth at 30 uM incubated for 72 hrs by CellTiter-Glo luminescent assay; format: functional
[18] = tested on: EA.hy 926; assay: Cytotoxicity against human EA.hy 926 cells assessed as inhibition of cell growth upto 100 uM incubated for 48 hrs by MTT assay; format: toxicity, cell-based; conditions: ea.hy 926, 48 h
[19] = target: Tyrosine-protein kinase receptor UFO (Homo sapiens) (UniProt P30530); assay: Inhibition of recombinant human AXL at 10 uM for 10 mins followed by substrate addition in presence of ATP and measured after 60 mins by HTRF assay; conditions: time 70.0 min
Tyrosine-protein kinase receptor UFO (Homo sapiens), sequence (P30530 whole entry): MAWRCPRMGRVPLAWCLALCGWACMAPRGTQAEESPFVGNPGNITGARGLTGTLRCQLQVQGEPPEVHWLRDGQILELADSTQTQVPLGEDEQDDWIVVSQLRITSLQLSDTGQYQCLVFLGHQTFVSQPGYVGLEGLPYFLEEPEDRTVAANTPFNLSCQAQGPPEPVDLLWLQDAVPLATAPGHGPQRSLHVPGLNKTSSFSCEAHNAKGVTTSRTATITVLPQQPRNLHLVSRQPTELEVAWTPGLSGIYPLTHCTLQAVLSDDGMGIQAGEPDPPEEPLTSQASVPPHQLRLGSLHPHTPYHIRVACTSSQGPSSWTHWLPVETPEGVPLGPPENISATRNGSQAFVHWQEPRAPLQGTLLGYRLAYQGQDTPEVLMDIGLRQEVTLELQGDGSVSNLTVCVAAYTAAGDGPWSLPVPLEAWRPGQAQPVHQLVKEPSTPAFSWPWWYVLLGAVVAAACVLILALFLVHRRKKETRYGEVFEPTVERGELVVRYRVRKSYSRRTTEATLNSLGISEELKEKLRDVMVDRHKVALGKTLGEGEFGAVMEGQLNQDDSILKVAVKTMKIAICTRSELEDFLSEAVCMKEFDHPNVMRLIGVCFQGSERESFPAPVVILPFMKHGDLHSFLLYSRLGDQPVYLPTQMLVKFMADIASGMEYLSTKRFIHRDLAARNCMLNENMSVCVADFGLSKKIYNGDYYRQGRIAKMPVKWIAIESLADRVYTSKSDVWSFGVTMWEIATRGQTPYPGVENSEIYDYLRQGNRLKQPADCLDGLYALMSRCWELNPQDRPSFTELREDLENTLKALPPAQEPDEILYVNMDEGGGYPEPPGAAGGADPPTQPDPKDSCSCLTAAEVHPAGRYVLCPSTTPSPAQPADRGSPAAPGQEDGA

[20] = tested on: K562; assay: Induction of apoptosis in human K562 cells assessed as early apoptotic cells at 10 uM incubated for 48 hrs by Annexin V-FITC/PI staining based flow cytometry analysis (Rvb= 4.35%); format: functional
[21] = target: Platelet-derived growth factor receptor alpha (Homo sapiens) (UniProt P16234); assay: Inhibition of recombinant human PDGFRalpha at 10 uM for 10 mins followed by substrate addition in presence of ATP and measured after 100 mins by ADP-Glo kinase assay; conditions: time 110.0 min
Platelet-derived growth factor receptor alpha (Homo sapiens), sequence (P16234 whole entry): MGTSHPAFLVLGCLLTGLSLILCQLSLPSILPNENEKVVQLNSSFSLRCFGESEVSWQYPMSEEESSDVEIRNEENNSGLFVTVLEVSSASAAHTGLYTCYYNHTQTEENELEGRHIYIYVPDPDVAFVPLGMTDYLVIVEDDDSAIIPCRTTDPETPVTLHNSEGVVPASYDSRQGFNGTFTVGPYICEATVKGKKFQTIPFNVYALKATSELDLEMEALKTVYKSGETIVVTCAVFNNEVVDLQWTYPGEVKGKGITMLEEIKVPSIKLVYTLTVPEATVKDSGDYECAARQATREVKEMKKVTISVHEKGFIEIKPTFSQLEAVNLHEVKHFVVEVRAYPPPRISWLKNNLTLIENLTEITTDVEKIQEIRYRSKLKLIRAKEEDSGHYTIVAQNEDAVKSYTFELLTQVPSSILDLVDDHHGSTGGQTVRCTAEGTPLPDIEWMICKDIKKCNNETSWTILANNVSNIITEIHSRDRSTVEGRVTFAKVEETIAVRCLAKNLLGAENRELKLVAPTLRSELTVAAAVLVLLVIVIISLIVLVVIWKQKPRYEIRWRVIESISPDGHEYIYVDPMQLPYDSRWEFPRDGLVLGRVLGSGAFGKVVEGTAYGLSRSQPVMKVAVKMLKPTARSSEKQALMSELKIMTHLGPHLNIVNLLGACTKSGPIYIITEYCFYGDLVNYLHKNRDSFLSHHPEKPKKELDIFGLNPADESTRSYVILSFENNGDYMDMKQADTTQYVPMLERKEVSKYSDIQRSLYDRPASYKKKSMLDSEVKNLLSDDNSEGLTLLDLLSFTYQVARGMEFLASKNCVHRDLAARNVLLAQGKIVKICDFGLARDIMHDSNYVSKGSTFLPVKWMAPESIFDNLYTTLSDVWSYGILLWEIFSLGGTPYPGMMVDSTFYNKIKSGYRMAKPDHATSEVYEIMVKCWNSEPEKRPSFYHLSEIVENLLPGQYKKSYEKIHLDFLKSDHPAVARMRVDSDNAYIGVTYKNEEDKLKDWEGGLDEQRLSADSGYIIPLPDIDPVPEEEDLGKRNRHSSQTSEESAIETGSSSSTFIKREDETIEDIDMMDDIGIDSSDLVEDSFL

[22] = target: Platelet-derived growth factor receptor alpha (Homo sapiens) (UniProt P16234); assay: Inhibition of recombinant human PDGFRalpha at 10 uM for 10 mins followed by substrate addition in presence of ATP and measured after 60 mins by HTRF assay; conditions: time 70.0 min
[23] = tested on: K562; assay: Induction of apoptosis in human K562 cells assessed as viable cells at 5 uM incubated for 48 hrs by Annexin V-FITC/PI staining based flow cytometry analysis (Rvb=80.89%); format: functional; conditions: read-out: Activity

With `O=C(Nc1nc2ccc(-c3cn([C@@H]4CN[C@H](C(=O)Nc5ccc(Cl)cc5Cl)C4)nn3)nc2s1)C1CC1` the Activity [1] was 19.42%, the inhibition [2] was 47.7% and the Activity [3] was 29.63%. The IC50 [4] was 1.91 µM, the IC50 [5] was 0.19 µM and the IC50 [6] was 0.74 µM. For the same compound, the viability at 1 µM [7] was 76.9%, the Activity [8] was 37.12% and the inhibition [9] was 68.4%. For the same compound, the Activity [10] was “Non-Toxic”, the inhibition [11] was 41.1% and the IC50 [12] was 0.672 µM. The Activity [13] was 3.59%, the inhibition [14] was 54.3% and the inhibition [15] was 47.7%. For the same compound, the inhibition [16] was 68.4%, the inhibition at 30 µM [17] was 87.6% and the Activity [18] was “Non-Toxic”. It also gave an inhibition [19] of 56.4%, an Activity [20] of 7.16% and an inhibition [21] of 87.9%. It also gave an inhibition [22] of 87.9% and a viability at 5 µM [23] of 66.5%.
